The source of these data is paper PMC5746514 (The Korean Journal of Physiology & Pharmacology : …, 2017).

For this experiment, the target named is T1, Kv3.1 potassium channel (Kv3.1b) (Rattus norvegicus, UniProt P25122).
T1 sequence (P25122 1-585): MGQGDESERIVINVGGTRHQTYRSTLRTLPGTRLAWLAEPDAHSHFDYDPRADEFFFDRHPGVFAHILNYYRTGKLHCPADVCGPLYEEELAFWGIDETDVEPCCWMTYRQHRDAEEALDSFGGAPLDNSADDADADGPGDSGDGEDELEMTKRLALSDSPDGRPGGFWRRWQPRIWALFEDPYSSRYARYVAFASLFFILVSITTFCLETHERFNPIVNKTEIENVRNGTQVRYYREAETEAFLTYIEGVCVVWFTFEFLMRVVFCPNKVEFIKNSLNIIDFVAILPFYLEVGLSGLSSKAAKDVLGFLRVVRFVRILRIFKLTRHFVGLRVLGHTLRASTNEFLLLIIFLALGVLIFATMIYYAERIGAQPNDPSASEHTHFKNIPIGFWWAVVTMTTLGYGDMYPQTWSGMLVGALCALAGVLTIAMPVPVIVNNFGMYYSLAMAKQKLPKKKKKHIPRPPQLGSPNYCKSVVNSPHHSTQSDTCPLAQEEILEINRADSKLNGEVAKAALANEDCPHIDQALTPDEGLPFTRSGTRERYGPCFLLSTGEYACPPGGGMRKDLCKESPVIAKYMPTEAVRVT
Briefly: whole-cell patch clamp of transfected CHO cells. It is filed as cell-based. On the technique in general: In patch-clamp work, channel activity is measured electrically.

As to `Fc1ccc([C@@H]2CCNC[C@H]2COc2ccc3c(c2)OCO3)cc1` [paroxetine], the IC50 (in general, the concentration that inhibits the measured activity by half) was found to be 9.43 µM.
